Some results are limits rather than exact numbers.

The test system of one experiment is MDA-MB-231 cells. Put plainly: cells. Conditions: read-out: IC50, MDA-MB-231 cells; 48 h treatment, WST-1. The method, then:
(§1) Cancer and normal cells (1 × 10^4 cells/well) were seeded in 96-well plates, incubated for 24 h, and then treated with increasing concentrations of AGM-330, PTX, and AGM-330-PTX for 48 h. Cell viability was assessed by the CellVia WST-1 assay (Young In Frontier) according to the manufacturer's instructions. The numbers of viable cells were measured at a wavelength of 450 nm using a VersaMax ELISA plate reader (Molecular Devices, San Jose, CA, USA).
(§2) Figure S3. A-C, Cancer and normal cells (1 × 10^4 cells/well) were seeded in 96-well plates. After 24 h of incuba-tion, the cells were treated with an increasing concentration of dimeric or tetrameric AGM-330 for 48 h. The viability of cells grown in 0 % FBS (A), 5 % FBS (B) or 10 % FBS (C) was assessed by a CellVia WST-1 assay (Young In Frontier, Seoul, Korea) according to the manufacturer’s instruction. The numbers of viable cells were measured at a wavelength of 450 nm using an VersaMax ELISA plate reader (Molecular Devices). D, E, Binding specificity of AGM-330. A whole-cell binding assay was performed to determine the cell binding of AGM-330 in 1 % FBS (D) or 5 % FBS (E). Scale bar, 200 μm.

A further experiment has as its system MCF-10A cells. The experiment can be described thus: cells. Conditions: read-out: IC50, MCF-10A cells; 48 h treatment, WST-1. How it is done:
as §1, §2
In general terms: Tetrazolium assays rely on reduction of a dye to a coloured formazan, in cell work by metabolically active cells.

The subject of the next experiment is MCF-10A. Put plainly: Whole-cell binding assay on OBOC peptide beads. It is filed as cell-based, human. Conditions: peptide on TentaGel beads incubated with cells at 10^6 cells/ml; repeated 3 times. Also on record: key: ++++: very strong binding (>40 cells per bead); +++: strong binding (30 -20 cells per bead); ++: moderate binding (20 - 10 cells per bead); +: weak binding (5-10 cells per bead); -: no binding. The method, then:
The beads were washed extensively with double-distilled water and phosphate-buffered saline (PBS; Welgene Inc., Korea) before screening. Cancer and normal cells were detached from culture dishes with trypsin/EDTA (Gibco), washed with their corresponding culture medium, resuspended at 10^6 cells/ml, and incubated with OBOC beads in Petri dishes in a humidified CO2 incubator at 37 °C with shaking (60 rpm). Beads bound by cells appeared under a microscope as rosettes in which a central bead was covered by one or more layers of cells. The positive beads were picked with a pipette under an inverted microscope, treated with guanidine-HCL (8 M, 20 min) to remove cells and proteins on the bead surface, and subjected to a second round of screening with normal breast epithelial cells to eliminate false positive binding.
Note : Semiquantitative relative binding activity: “++++” very strong binding (>40 cells per bead), “+++” strong binding (30
-20 cells per bead), “+ +” moderate binding (20 - 10 cells per bead), “+” weak binding (5-10 cells per bead), “-” no binding. […]
Figure S1. A, Steps performed in peptide library synthesis and screening. 1, The split-mix synthesis method was performed to construct the combinatorial OBOC libraries. […]
sized. 3, OBOC libraries were incubated with cancer cells in a CO2 incubator. 4, Beads carrying ligands with an affinity for cell surface molecules became covered with cells. 5, The positive beads were picked with a pipette under an inverted microscope. 6, The peptide sequences for positive beads were determined by Edman microse - […]
peptide libraries. B, The binding specificities of the peptides against cancer cell and normal cells were deter- […]
breast and colorectal cancer cells and normal breast and colorectal cells were re-suspended at 10^6 cells/ml and incubated with beads. All experiments were repeated 3 times. Scale bar, 200 μm.

Turning to `CSCC[C@H](NC(=O)[C@H](C)NC(=O)CNC(=O)[C@H](Cc1c[nH]cn1)NC(=O)[C@@H](N)CCCNC(=N)N)C(=O)N[C@H](C(=O)N[C@@H](Cc1ccc(O)cc1)C(=O)N[C@@H](CC(C)C)C(=O)N[C@@H](CCCCN)C(=O)NCCOCCOCCOCCOCCOCCOCCOCCOCCOCCOCCOCCOCCC(=O)NCCCC[C@H](NC(=O)CCOCCOCCOCCOCCOCCOCCOCCOCCOCCOCCOCCOCCNC(=O)[C@H](CCCCN)NC(=O)[C@H](CC(C)C)NC(=O)[C@H](Cc1ccc(O)cc1)NC(=O)[C@@H](NC(=O)[C@H](CCSC)NC(=O)[C@H](C)NC(=O)CNC(=O)[C@H](Cc1c[nH]cn1)NC(=O)[C@@H](N)CCCNC(=N)N)C(C)C)C(=O)NCCCC[C@H](NC(=O)[C@H](CCCCNC(=O)CCOCCOCCOCCOCCOCCOCCOCCOCCOCCOCCOCCOCCNC(=O)[C@H](CCCCN)NC(=O)[C@H](CC(C)C)NC(=O)[C@H](Cc1ccc(O)cc1)NC(=O)[C@@H](NC(=O)[C@H](CCSC)NC(=O)[C@H](C)NC(=O)CNC(=O)[C@H](Cc1c[nH]cn1)NC(=O)[C@@H](N)CCCNC(=N)N)C(C)C)NC(=O)CCOCCOCCOCCOCCOCCOCCOCCOCCOCCOCCOCCOCCNC(=O)[C@H](CCCCN)NC(=O)[C@H](CC(C)C)NC(=O)[C@H](Cc1ccc(O)cc1)NC(=O)[C@@H](NC(=O)[C@H](CCSC)NC(=O)[C@H](C)NC(=O)CNC(=O)[C@H](Cc1c[nH]cn1)NC(=O)[C@@H](N)CCCNC(=N)N)C(C)C)C(=O)N[C@@H](CS)C(=O)O)C(C)C` [AGM-330], the IC50 in the experiment with MDA-MB-231 cells and in the experiment with MCF-10A cells was > 100 µM throughout. In addition, in the experiment on MCF-10A, the “Semiquantitative relative binding activity, MCF-10A” value is on record as “-”.

The record behind these values is publication PMC7415810, “A novel nucleolin-binding peptide for Cancer Theranostics” (Theranostics, 2020).
